Key:
HepG-2 = assay: In vitro antiproliferative MTT assay, HepG-2; assay type: cell-based; conditions: Homo sapiens, HepG2, read-out: IC50 HepG-2
HCT-116 = assay: In vitro antiproliferative MTT assay, HCT-116; assay type: cell-based; conditions: Homo sapiens, HCT-116, read-out: IC50 HCT-116
MCF-7 = assay: In vitro antiproliferative MTT assay, MCF-7; assay type: cell-based; conditions: Homo sapiens, MCF7, read-out: IC50 MCF-7
HepG2 cells [1] = assay: Cell cycle analysis, flow cytometry, HepG2; assay type: cell-based, human; conditions: treated at IC50 (3a 4.82, 6 3.33, 15 3.31 μM), 72 h, single measurement
HepG2 cells [2] = assay: Apoptosis analysis, Annexin V/PI, HepG2; assay type: cell-based, human; conditions: at IC50, 72 h, single measurement
WI-38 = assay: Cytotoxicity against normal WI-38 cells; assay type: cell-based; conditions: Homo sapiens, WI-38, read-out: IC50 WI-38

| IC50 (HCT-116) [µM] | IC50 (MCF-7) [µM] | SMILES | IC50 (HepG-2) [µM] | %G0-G1 (HepG2 cells [1]) [%] | %G2/M (HepG2 cells [1]) [%] | %Pre-G1 (HepG2 cells [1]) [%] | %S (HepG2 cells [1]) [%] | apoptosis early (HepG2 cells [2]) [%] | apoptosis late (HepG2 cells [2]) [%] | apoptosis total (HepG2 cells [2]) [%] | necrosis (HepG2 cells [2]) [%] | IC50 (WI-38) [µM] |
| --- | --- | --- | --- | --- | --- | --- | --- | --- | --- | --- | --- | --- |
| 9.3 ± 0.2 | 6.72 ± 0.16 | CNC(=O)c1cc(Oc2ccc(NC(=O)Nc3ccc(Cl)c(C(F)(F)F)c3)cc2)ccn1 [sorafenib] | 7.4 ± 0.25 |  |  |  |  |  |  |  |  | 35.71 ± 0.013 |
| 3.21 ± 0.21 | 5.83 ± 0.61 | CC[C@]1(O)C[C@@H]2CN(CCc3c([nH]c4ccccc34)[C@@](C(=O)OC)(c3cc4c(cc3OC)N(C)[C@H]3[C@@](O)(C(=O)OC)[C@H](OC(C)=O)[C@]5(CC)C=CCN6CC[C@]43[C@@H]65)C2)C1 [vinblastine] | 7.35 ± 0.52 |  |  |  |  |  |  |  |  |  |

Further lines, the molecule ahead of its results:

| SMILES | IC50 (HCT-116) [µM] | IC50 (MCF-7) [µM] | IC50 (HepG-2) [µM] | %G0-G1 (HepG2 cells [1]) [%] | %G2/M (HepG2 cells [1]) [%] | %Pre-G1 (HepG2 cells [1]) [%] | %S (HepG2 cells [1]) [%] | apoptosis early (HepG2 cells [2]) [%] | apoptosis late (HepG2 cells [2]) [%] | apoptosis total (HepG2 cells [2]) [%] | necrosis (HepG2 cells [2]) [%] | IC50 (WI-38) [µM] |
| --- | --- | --- | --- | --- | --- | --- | --- | --- | --- | --- | --- | --- |
| CCN(CC)C(=S)N/N=C(\C)c1ccc(S(=O)(=O)N2CCC(C)CC2)cc1 [Compound 5, (E)-N,N-Diethyl-2-(1-(4-((4-methylpiperidin-1-yl)sulfonyl)phenyl)ethylidene)hydrazine-1-carbothioamide] | 15.1 ± 0.75 | 18.4 ± 0.85 | 10.7 ± 0.63 |  |  |  |  |  |  |  |  |  |
| C/C(=N\N)c1ccc(S(=O)(=O)N2CCC(C)CC2)cc1 [Compound 12, (E)-1-((4-(1-hydrazineylideneethyl)phenyl)sulfonyl)-4-methylpiperidine] | 87.3 ± 6.2 | 96.1 ± 5.23 | 59.6 ± 3.3 |  |  |  |  |  |  |  |  |  |
| COc1cccc2c1C(=O)c1c(O)c3c(c(O)c1C2=O)C[C@@](O)(C(=O)CO)C[C@@H]3O[C@H]1C[C@H](N)[C@H](O)[C@H](C)O1 [doxorubicin] | 6.74 ± 0.4 | 8.19 ± 0.62 | 7.52 ± 0.31 | 48.26 | 21.46 | 31.28 | 30.28 | 7.43 | 21.13 | 31.28 | 2.72 |  |

Reference: paper PMC12423892 (ACS Omega, 2025)
